Test results taken from PubChem BioAssay (NCI).
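GI50 marks 50% less growth. TGI denotes the concentration required for complete inhibition of growth.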

Legend:
Test in all cases: NCI-60 cell line screen, 384-well format
A498 renal = system: A498 renal
IGROV1 ovarian = system: IGROV1 ovarian
MOLT-4 leukemia = system: MOLT-4 leukemia
MDA-MB-231 breast = system: MDA-MB-231 breast
SK-OV-3 ovarian = system: SK-OV-3 ovarian
OVCAR-3 ovarian = system: OVCAR-3 ovarian
SF-268 CNS = system: SF-268 CNS
MCF7 breast = system: MCF7 breast
CAKI-1 renal = system: CAKI-1 renal
UACC-257 melanoma = system: UACC-257 melanoma
HOP-62 NSCLC = system: HOP-62 NSCLC
SF-295 CNS = system: SF-295 CNS
OVCAR-5 ovarian = system: OVCAR-5 ovarian
K-562 leukemia = system: K-562 leukemia
NCI-H522 lung = system: NCI-H522 lung
CCRF-CEM leukemia = system: CCRF-CEM leukemia
NCI-H23 lung = system: NCI-H23 lung
A549 NSCLC = system: A549 NSCLC
SK-MEL-28 melanoma = system: SK-MEL-28 melanoma
BT-549 breast = system: BT-549 breast
SN12C renal = system: SN12C renal
NCI/ADR-RES ovarian = system: NCI/ADR-RES ovarian
HCT-15 colon = system: HCT-15 colon
M14 melanoma = system: M14 melanoma
EKVX NSCLC = system: EKVX NSCLC
RXF 393 renal = system: RXF 393 renal
COLO 205 colon = system: COLO 205 colon
OVCAR-4 ovarian = system: OVCAR-4 ovarian
UACC-62 melanoma = system: UACC-62 melanoma
UO-31 renal = system: UO-31 renal
HL-60(TB) leukemia = system: HL-60(TB) leukemia
NCI-H460 NSCLC = system: NCI-H460 NSCLC
SK-MEL-2 melanoma = system: SK-MEL-2 melanoma
MDA-MB-435 melanoma = system: MDA-MB-435 melanoma
RPMI-8226 leukemia = system: RPMI-8226 leukemia
U251 glioblastoma = system: U251 glioblastoma
PC-3 prostate = system: PC-3 prostate
OVCAR-8 ovarian = system: OVCAR-8 ovarian
DU-145 prostate = system: DU-145 prostate
KM12 colon = system: KM12 colon
SW-620 colon = system: SW-620 colon
T-47D breast = system: T-47D breast
LOX IMVI melanoma = system: LOX IMVI melanoma
SK-MEL-5 melanoma = system: SK-MEL-5 melanoma
HT29 colon = system: HT29 colon
HOP-92 NSCLC = system: HOP-92 NSCLC
HCT-116 colon = system: HCT-116 colon
SNB-75 CNS = system: SNB-75 CNS
HS 578T breast = system: HS 578T breast
ACHN renal = system: ACHN renal
786-0 renal = system: 786-0 renal
MDA-MB-468 breast = system: MDA-MB-468 breast
SR leukemia = system: SR leukemia
MALME-3M melanoma = system: MALME-3M melanoma
NCI-H226 lung = system: NCI-H226 lung
HCC-2998 colon = system: HCC-2998 colon
SF-539 CNS = system: SF-539 CNS
TK-10 renal = system: TK-10 renal
SNB-19 CNS = system: SNB-19 CNS
NCI-H322M lung = system: NCI-H322M lung

SMILES: CC(=O)Nc1cccc(-n2c(=O)n(C3CC3)c(=O)c3c(Nc4ccc(I)cc4F)n(C)c(=O)c(C)c32)c1
- GI50 (A498 renal): 0.08 µM
- TGI (A498 renal): 4.52 µM
- GI50 (IGROV1 ovarian): < 0.01 µM
- TGI (IGROV1 ovarian): 5.48 µM
- GI50 (MOLT-4 leukemia): 3.11 µM
- TGI (MOLT-4 leukemia): 12.3 µM
- GI50 (MDA-MB-231 breast): < 0.0489 µM
- TGI (MDA-MB-231 breast): 1.99 µM
- TGI (SK-OV-3 ovarian): > 41.1 µM
- GI50 (OVCAR-3 ovarian): 4.65 µM
- TGI (OVCAR-3 ovarian): 21.4 µM
- GI50 (SF-268 CNS): 7.21 µM
- TGI (SF-268 CNS): > 56.4 µM
- GI50 (MCF7 breast): 7.68 µM
- TGI (MCF7 breast): 23.6 µM
- GI50 (CAKI-1 renal): < 0.026 µM
- TGI (CAKI-1 renal): 12 µM
- GI50 (UACC-257 melanoma): < 0.01 µM
- TGI (UACC-257 melanoma): < 0.01 µM
- GI50 (HOP-62 NSCLC): < 0.0113 µM
- TGI (HOP-62 NSCLC): 21.2 µM
- GI50 (SF-295 CNS): 23.1 µM
- TGI (SF-295 CNS): > 86.2 µM
- GI50 (OVCAR-5 ovarian): < 0.01 µM
- TGI (OVCAR-5 ovarian): 25.5 µM
- GI50 (K-562 leukemia): 0.0265 µM
- TGI (K-562 leukemia): 11.8 µM
- GI50 (NCI-H522 lung): 4.33 µM
- TGI (NCI-H522 lung): 37.4 µM
- GI50 (CCRF-CEM leukemia): 3.32 µM
- TGI (CCRF-CEM leukemia): 12.8 µM
- GI50 (NCI-H23 lung): < 0.01 µM
- TGI (NCI-H23 lung): 0.137 µM
- GI50 (A549 NSCLC): 0.0103 µM
- TGI (A549 NSCLC): 4.68 µM
- GI50 (SK-MEL-28 melanoma): < 0.01 µM
- TGI (SK-MEL-28 melanoma): < 0.01 µM
- GI50 (BT-549 breast): 0.846 µM
- TGI (BT-549 breast): 18.3 µM
- GI50 (SN12C renal): 0.537 µM
- TGI (SN12C renal): 46.4 µM
- GI50 (NCI/ADR-RES ovarian): 1.32 µM
- TGI (NCI/ADR-RES ovarian): 8.35 µM
- GI50 (HCT-15 colon): 0.238 µM
- TGI (HCT-15 colon): 14.7 µM
- GI50 (M14 melanoma): < 0.01 µM
- TGI (M14 melanoma): < 0.01 µM
- GI50 (EKVX NSCLC): 0.309 µM
- TGI (EKVX NSCLC): 23.7 µM
- TGI (RXF 393 renal): 1.44 µM
- GI50 (COLO 205 colon): < 0.01 µM
- TGI (COLO 205 colon): < 0.0106 µM
- GI50 (OVCAR-4 ovarian): 4.87 µM
- TGI (OVCAR-4 ovarian): 26.9 µM
- GI50 (UACC-62 melanoma): < 0.01 µM
- GI50 (UO-31 renal): 0.0541 µM
- TGI (UO-31 renal): 11.3 µM
- GI50 (HL-60(TB) leukemia): < 0.01 µM
- TGI (HL-60(TB) leukemia): < 0.01 µM
- GI50 (NCI-H460 NSCLC): 3.88 µM
- TGI (NCI-H460 NSCLC): > 40.9 µM
- GI50 (SK-MEL-2 melanoma): < 0.01 µM
- TGI (SK-MEL-2 melanoma): < 0.01 µM
- GI50 (MDA-MB-435 melanoma): < 0.01 µM
- TGI (MDA-MB-435 melanoma): 16.5 µM
- GI50 (RPMI-8226 leukemia): 0.423 µM
- TGI (RPMI-8226 leukemia): 4.84 µM
- GI50 (U251 glioblastoma): 0.076 µM
- TGI (U251 glioblastoma): 23.2 µM
- GI50 (PC-3 prostate): > 35.7 µM
- TGI (PC-3 prostate): > 59.5 µM
- GI50 (OVCAR-8 ovarian): 2.88 µM
- TGI (OVCAR-8 ovarian): 36.1 µM
- GI50 (DU-145 prostate): 1.96 µM
- TGI (DU-145 prostate): 44.4 µM
- GI50 (KM12 colon): < 0.01 µM
- TGI (KM12 colon): 26.1 µM
- GI50 (SW-620 colon): < 0.01 µM
- TGI (SW-620 colon): > 36 µM
- GI50 (T-47D breast): > 25.1 µM
- TGI (T-47D breast): > 100 µM
- GI50 (LOX IMVI melanoma): < 0.01 µM
- TGI (LOX IMVI melanoma): 0.0443 µM
- GI50 (SK-MEL-5 melanoma): < 0.01 µM
- TGI (SK-MEL-5 melanoma): < 0.01 µM
- GI50 (HT29 colon): < 0.01 µM
- TGI (HT29 colon): 15 µM
- GI50 (HOP-92 NSCLC): < 0.0172 µM
- TGI (HOP-92 NSCLC): 0.123 µM
- GI50 (HCT-116 colon): < 0.01 µM
- TGI (HCT-116 colon): 0.0787 µM
- GI50 (SNB-75 CNS): 0.115 µM
- TGI (SNB-75 CNS): 5.76 µM
- GI50 (HS 578T breast): 1.5 µM
- TGI (HS 578T breast): 24.9 µM
- GI50 (ACHN renal): 0.576 µM
- TGI (ACHN renal): 20.4 µM
- GI50 ([…]-0 renal): 1.2 µM
- TGI (786-0 renal): 20.1 µM
- GI50 (MDA-MB-468 breast): 5.03 µM
- TGI (MDA-MB-468 breast): 14.2 µM
- GI50 (SR leukemia): 1.1 µM
- TGI (SR leukemia): 5.65 µM
- GI50 (MALME-3M melanoma): < 0.01 µM
- TGI (MALME-3M melanoma): < 0.01 µM
- GI50 (NCI-H226 lung): < 0.0432 µM
- TGI (NCI-H226 lung): 8.93 µM
- GI50 (HCC-2998 colon): < 0.01 µM
- TGI (HCC-2998 colon): < 0.0119 µM
- GI50 (SF-539 CNS): 0.0819 µM
- TGI (SF-539 CNS): 11 µM
- TGI (TK-10 renal): > 45.6 µM
- TGI (SNB-19 CNS): > 62.1 µM
- GI50 (NCI-H322M lung): < 0.0237 µM
- TGI (NCI-H322M lung): 3.6 µM
